Results: ChEMBL document CHEMBL5505968, “Hybrids of selective COX-2 inhibitors and active derivatives of edaravone as COX-2 selective NSAIDs with free radical scavenging activity: Design, synthesis and biological activities” (Eur J Med Chem, 2024)
pIC50: −log10 of the molar value. One block for each molecule: values may come before it.

What was measured:
[1] = Antioxidant activity assessed as DPPH radical scavenging activity at 40 uM incubated for 30 mins by thermo-microplate photometric analysis relative to control; type: functional
[2] = Antioxidant activity assessed as DPPH radical scavenging activity incubated for 30 mins by thermo-microplate photometric analysis; type: functional
[3] = molecular target: Prostaglandin G/H synthase 2 (Homo sapiens) (UniProt P35354); assay: Inhibition of COX-2 (unknown origin) using arachidonic acid as substrate at 1 uM preincubated for 10 mins followed by substrate addition and measured after 5 mins by fluorescence based analysis relative to control; settings: time 15.0 min
[4] = molecular target: Prostaglandin G/H synthase 2 (Homo sapiens) (UniProt P35354); assay: Inhibition of COX-2 (unknown origin) using arachidonic acid as substrate at 10 uM preincubated for 10 mins followed by substrate addition and measured after 5 mins by fluorescence based analysis relative to control; settings: time 15.0 min
[5] = test system: Liver; assay: Antioxidant activity against FeCl2 induced oxidative stress in ICR mouse liver assessed as inhibition of malondialdehyde level at 250 uM incubated for 60 mins by thermo-microplate photometric analysis relative to control; type: functional; settings: 1 h
[6] = test system: Liver; assay: Antioxidant activity against FeCl2 induced oxidative stress in ICR mouse liver assessed as inhibition of malondialdehyde level at 500 uM incubated for 60 mins by thermo-microplate photometric analysis relative to control; type: functional; settings: 1 h
[7] = test system: Liver; assay: Antioxidant activity against FeCl2 induced oxidative stress in ICR mouse liver assessed as inhibition of malondialdehyde level at 1000 uM incubated for 60 mins by thermo-microplate photometric analysis relative to control; type: functional; settings: 1 h
[8] = test system: Mus musculus; assay: Analgesic activity against acetic acid-induced ICR mouse assessed as number of writhing at 20 mg/kg,ip pre-administrated with compound for 15 mins followed by acetic acid addition and measured after 15 mins; type: functional; settings: time 30 min, 0.5 h
[9] = test system: Mus musculus; assay: Analgesic activity against acetic acid-induced ICR mouse assessed as inhibition of writhing at 20 mg/kg,ip pre-administrated with compound for 15 mins followed by acetic acid addition and measured after 15 mins; type: functional; settings: 0.5 h, time 30 min
[10] = Tmax in ICR mouse at 1 mg/kg,iv administration measured for 0.25 to 8 hrs by LC-MS/MS analysis; type: ADME, organism-based; settings: in vivo, time 0.25-8 hrs
[11] = Tmax in ICR mouse at 10 mg/kg,po administration measured for 0.25 to 8 hrs by LC-MS/MS analysis; type: ADME, organism-based; settings: in vivo, time 0.25-8 hrs
[12] = Cmax in ICR mouse at 1 mg/kg,iv administration measured for 0.25 to 8 hrs by LC-MS/MS analysis; type: ADME, organism-based; settings: in vivo, time 0.25-8 hrs
[13] = Cmax in ICR mouse at 10 mg/kg,po administration measured for 0.25 to 8 hrs by LC-MS/MS analysis; type: ADME, organism-based; settings: in vivo, time 0.25-8 hrs
[14] = AUC (0 to t) in ICR mouse at 1 mg/kg,iv administration measured for 0.25 to 8 hrs by LC-MS/MS analysis; type: ADME, organism-based; settings: in vivo, time 0.25-8 hrs
[15] = AUC (0 to t) in ICR mouse at 10 mg/kg,po administration measured for 0.25 to 8 hrs by LC-MS/MS analysis; type: ADME, organism-based; settings: in vivo, time 0.25-8 hrs
[16] = AUC (0 to infinity) in ICR mouse at 1 mg/kg,iv administration measured for 0.25 to 8 hrs by LC-MS/MS analysis; type: ADME, organism-based; settings: in vivo, time 0.25-8 hrs
[17] = AUC (0 to infinity) in ICR mouse at 10 mg/kg,po administration measured for 0.25 to 8 hrs by LC-MS/MS analysis; type: ADME, organism-based; settings: in vivo, time 0.25-8 hrs
[18] = MRT (0 to infinity) in ICR mouse at 1 mg/kg,iv administration measured for 0.25 to 8 hrs by LC-MS/MS analysis; type: ADME, organism-based; settings: in vivo, time 0.25-8 hrs
[19] = MRT (0 to infinity) in ICR mouse at 10 mg/kg,po administration measured for 0.25 to 8 hrs by LC-MS/MS analysis; type: ADME, organism-based; settings: in vivo, time 0.25-8 hrs
[20] = Half life in ICR mouse at 1 mg/kg,iv administration measured for 0.25 to 8 hrs by LC-MS/MS analysis; type: ADME, organism-based; settings: in vivo, time 0.25-8 hrs
[21] = Half life in ICR mouse at 10 mg/kg,po administration measured for 0.25 to 8 hrs by LC-MS/MS analysis; type: ADME, organism-based; settings: in vivo, time 0.25-8 hrs
[22] = Apparent volume of distribution in ICR mouse at 1 mg/kg,iv administration measured for 0.25 to 8 hrs by LC-MS/MS analysis; type: ADME, organism-based; settings: in vivo, time 0.25-8 hrs, read-out: Vz
[23] = Apparent volume of distribution in ICR mouse at 10 mg/kg,po administration measured for 0.25 to 8 hrs by LC-MS/MS analysis; type: ADME, organism-based; settings: in vivo, time 0.25-8 hrs
[24] = Clearance in ICR mouse at 1 mg/kg,iv administration measured for 0.25 to 8 hrs by LC-MS/MS analysis; type: ADME, organism-based; settings: in vivo, time 0.25-8 hrs
[25] = Clearance in ICR mouse at 10 mg/kg,po administration measured for 0.25 to 8 hrs by LC-MS/MS analysis; type: ADME, organism-based; settings: in vivo, time 0.25-8 hrs
[26] = Bioavailability in ICR mouse at 1 mg/kg,iv administration measured for 0.25 to 8 hrs by LC-MS/MS analysis; type: ADME, organism-based; settings: in vivo, time 0.25-8 hrs
[27] = test system: Mus musculus; assay: Analgesic activity against acetic acid-induced ICR mouse assessed as number of writhing at 50 mg/kg,ip pre-administrated with compound for 15 mins followed by acetic acid addition and measured after 15 mins; type: functional; settings: time 30 min, 0.5 h
[28] = test system: Mus musculus; assay: Analgesic activity against acetic acid-induced ICR mouse assessed as inhibition of writhing at 50 mg/kg,ip pre-administrated with compound for 15 mins followed by acetic acid addition and measured after 15 mins; type: functional; settings: 0.5 h, time 30 min

Chain of Prostaglandin G/H synthase 2 (Homo sapiens) (P35354 whole entry, looked up): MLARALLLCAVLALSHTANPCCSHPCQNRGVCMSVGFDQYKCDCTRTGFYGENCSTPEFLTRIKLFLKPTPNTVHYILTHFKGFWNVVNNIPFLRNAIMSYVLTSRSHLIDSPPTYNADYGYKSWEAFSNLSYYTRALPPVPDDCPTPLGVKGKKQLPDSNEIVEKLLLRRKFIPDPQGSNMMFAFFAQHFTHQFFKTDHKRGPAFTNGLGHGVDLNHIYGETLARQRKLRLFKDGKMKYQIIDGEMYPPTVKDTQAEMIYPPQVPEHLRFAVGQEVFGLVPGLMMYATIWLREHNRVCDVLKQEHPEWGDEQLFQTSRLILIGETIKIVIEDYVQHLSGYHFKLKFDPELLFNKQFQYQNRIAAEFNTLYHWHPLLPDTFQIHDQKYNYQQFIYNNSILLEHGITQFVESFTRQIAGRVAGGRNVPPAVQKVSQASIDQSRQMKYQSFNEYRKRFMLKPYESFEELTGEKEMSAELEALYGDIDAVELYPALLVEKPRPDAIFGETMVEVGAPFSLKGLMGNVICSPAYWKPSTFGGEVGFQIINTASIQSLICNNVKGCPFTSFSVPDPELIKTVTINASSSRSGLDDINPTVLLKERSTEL

pIC50 [2]: 4.62 | inhibition [3]: 75% | inhibition [4]: 90.5%
SMILES: Cc1nn(-c2cccc(Cl)c2)c(O)c1Cc1ccc(C(=O)NO)cc1
inhibition [1]: 69.2%

pIC50 [2]: 4.48
SMILES: CC1=NN(c2ccccc2)C(=O)C1 [EDARAVONE]
inhibition [1]: 64.3% | inhibition at 250 µM [5]: 37.7% | inhibition at 500 µM [6]: 46.9% | inhibition at 1000 µM [7]: 62.2%

SMILES: Cc1ccc(-c2cc(C(F)(F)F)nn2-c2ccc(S(N)(=O)=O)cc2)cc1 [CELECOXIB]
Activity [8]: 7.1 | inhibition in vivo at 20 mg/kg [9]: 80.9%

inhibition [3]: 77.5% | inhibition [4]: 90%
SMILES: Cc1nn(-c2ccccc2)c(O)c1Cc1ccc(S(C)(=O)=O)cc1
inhibition [1]: 37.1%

inhibition [3]: 78% | inhibition [4]: 89%
SMILES: COc1cccc(-n2nc(C)c(Cc3ccc(C(=O)NO)cc3)c2O)c1
inhibition [1]: 43.3%

pIC50 [2]: 4.71 | inhibition [3]: 75% | inhibition [4]: 89%
SMILES: CC(C)(C)c1nn(-c2ccccc2)c(O)c1Cc1ccc(C(=O)NO)cc1
inhibition [1]: 72.9%

inhibition [3]: 77.5% | inhibition [4]: 84.5%
SMILES: Cc1nn(-c2ccccc2)c(O)c1Cc1cccc(S(C)(=O)=O)c1
inhibition [1]: 22.8%

inhibition [3]: 55% | inhibition [4]: 72.5%
SMILES: O=C(NO)c1ccc(Cc2c(C3CC3)[nH]n(-c3ccccc3)c2=O)cc1
inhibition [1]: 64.7%

pIC50 [2]: 4.66 | inhibition [3]: 70.5% | inhibition [4]: 82.5%
SMILES: CCc1nn(-c2ccccc2)c(O)c1Cc1ccc(C(=O)NO)cc1
inhibition [1]: 67.7%

inhibition [3]: 66.5% | inhibition [4]: 86%
SMILES: Cc1[nH]n(-c2ccccc2)c(=O)c1Cc1cccc(C(=O)NO)c1
inhibition [1]: 11%

inhibition [3]: 78% | inhibition [4]: 86.5%
SMILES: Cc1nn(-c2ccccc2)c(O)c1Cc1ccc(CC(=O)O)cc1
inhibition [1]: 38.5%

inhibition [3]: 54.5% | inhibition [4]: 73%
SMILES: CC(C)(C)c1nn(-c2ccccc2)c(O)c1Cc1ccc(C(=O)O)cc1
inhibition [1]: 49.9%

inhibition [3]: 63.5% | inhibition [4]: 94.5%
SMILES: Cc1nn(-c2ccccc2)c(O)c1Cc1cccc(C(=O)O)c1
inhibition [1]: 17.4%

inhibition [3]: 58.5% | inhibition [4]: 80.5%
SMILES: Cc1nn(-c2ccc(Cl)c(Cl)c2)c(O)c1Cc1ccc(C(=O)NO)cc1
inhibition [1]: 58.1%

inhibition [3]: 58.5% | inhibition [4]: 79%
SMILES: COc1cccc(-n2nc(C)c(Cc3ccc(C(=O)O)cc3)c2O)c1
inhibition [1]: 33.6%

inhibition [3]: 57.5% | inhibition [4]: 82%
SMILES: O=C(O)c1ccc(Cc2c(C3CC3)nn(-c3ccccc3)c2O)cc1
inhibition [1]: 37.3%

inhibition [3]: 64.5% | inhibition [4]: 78.5%
SMILES: Cc1nn(-c2ccc(Cl)cc2)c(O)c1Cc1ccc(C(=O)NO)cc1
inhibition [1]: 68%

inhibition [3]: 85.5% | inhibition [4]: 95%
SMILES: Cc1nn(-c2ccccc2)c(O)c1Cc1ccc(C(=O)O)cc1
inhibition [1]: 37.7%

inhibition [3]: 63.5% | inhibition [4]: 83.5%
SMILES: CCc1nn(-c2ccccc2)c(O)c1Cc1ccc(C(=O)O)cc1
inhibition [1]: 42.7%

inhibition [3]: 46% | inhibition [4]: 78.5%
SMILES: Cc1nn(-c2ccc(Cl)cc2)c(O)c1Cc1ccc(C(=O)O)cc1
inhibition [1]: 36.1%

inhibition [3]: 50.5% | inhibition [4]: 81%
SMILES: Cc1nn(-c2ccc(Cl)c(Cl)c2)c(O)c1Cc1ccc(C(=O)O)cc1
inhibition [1]: 38.6%

pIC50 [2]: 4.70 | Tmax [10]: 4.8 min | Tmax [11]: 1 h | Cmax [12]: 12200 ng/mL | Cmax [13]: 4510 ng/mL | AUC(0-t) [14]: 7680 ng·h/mL | AUC(0-t) [15]: 20300 ng·h/mL | AUC(0-inf) [16]: 7870 ng·h/mL | AUC(0-inf) [17]: 28400 ng·h/mL | MRT inf [18]: 1.08 h | MRT inf [19]: 6.32 h | half-life [20]: 2.74 h | half-life [21]: 4.16 h | Vd [22]: 0.508 L/kg | Vz [23]: 2.13507 L/kg | clearance [24]: 2.12 mL/min/kg | CL/F [25]: 5.92 mL/min/kg | bioavailability [26]: 36% | inhibition [3]: 87% | inhibition [4]: 98%
SMILES: Cc1[nH]n(-c2ccccc2)c(=O)c1Cc1ccc(C(=O)NO)cc1
inhibition [1]: 71.6% | inhibition at 250 µM [5]: 51.9% | inhibition at 500 µM [6]: 62.3% | inhibition at 1000 µM [7]: 77.3% | Activity [8]: 11.1 | Activity [27]: 9.8 | inhibition in vivo at 20 mg/kg [9]: 70.2% | inhibition in vivo at 50 mg/kg [28]: 73.7%

inhibition [3]: 45.5% | inhibition [4]: 75%
SMILES: Cc1nn(-c2cccc(Cl)c2)c(O)c1Cc1ccc(C(=O)O)cc1
inhibition [1]: 35.8%
